# pIC50: −log10 of the molar value.
# Columns and labels:
# [1] = biological target: T1, CYP3A4 (Homo sapiens, UniProt P08684); test: Inhibitory effect on CYP coenzyme activity, human liver microsomes; type: in vitro ADME; settings: compound 10 μM; human liver microsomes 0.25 mg/mL; substrate midazolam; 15 minutes
# T1 construct: human liver microsomes (0.25 mg/mL); from tissue; host or cells: human liver microsomes
# Protocol: (§1) The inhibitory effects of the compounds prepared according to Examples 1 to 175 on CYP coenzyme activity were identified. Specifically, human liver microsomes (0.25 mg/mL), a 0.1 M phosphate buffer solution (pH 7.4), a substrate drug cocktail of five types of drug metabolism enzymes (50 μM phenacetin, 10 μM diclofenac, 100 μM S-mephenytoin, 5 μM dextromethorphan, and 2.5 μM midazolam), and the compound at a concentration of 0 μM or 10 μM were mixed and pre-cultured at 37° C. for 5 minutes, and then further cultured at 37° C. for 15 minutes together with an NADPH generation system solution added thereto. Thereafter, the reaction was terminated by adding an acetonitrile solution containing an internal standard material (terfenadine) and centrifuged for 5 minutes (14,000 rpm, 4° C.), and then a supernatant was injected into an LC-MS/MS system for simultaneous analysis of metabolites of the substrate drugs to thereby evaluate the inhibitory effects on drug metabolism.
# (§2) Metabolites of each CYP coenzyme indicator drug generated through the reaction were analyzed using the Shimadzu Nexera XR system and TSQ Vantage (Thermo). In an HPLC column, Kinetex C18 (2.1 mm×100 mm, 2.6 μm, particle size; Phenomenex, USA) was used, and mobile phases were (A) distilled water containing 0.1% formic acid and (B) acetonitrile containing 0.1% formic acid, and a gradient program shown in Table 3 was applied thereto.
# (§3) The generated metabolites were quantified using a multiple reaction monitoring (MRM) quantification mode, and Xcalibur (version 1.6.1) was used for data analysis. Inhibitory effects of the novel compound prepared according to the examples of the present invention on CYP coenzyme activity are shown in Table 4 below.
# [2] = biological target: T2, CYP2C19 (Homo sapiens, UniProt P33261); test: as above; type: in vitro ADME; settings: compound 10 μM; human liver microsomes 0.25 mg/mL; substrate S-mephenytoin; 15 minutes
# T2 construct: human liver microsomes (0.25 mg/mL); from tissue; host or cells: human liver microsomes
# T2 sequence (P33261 whole entry): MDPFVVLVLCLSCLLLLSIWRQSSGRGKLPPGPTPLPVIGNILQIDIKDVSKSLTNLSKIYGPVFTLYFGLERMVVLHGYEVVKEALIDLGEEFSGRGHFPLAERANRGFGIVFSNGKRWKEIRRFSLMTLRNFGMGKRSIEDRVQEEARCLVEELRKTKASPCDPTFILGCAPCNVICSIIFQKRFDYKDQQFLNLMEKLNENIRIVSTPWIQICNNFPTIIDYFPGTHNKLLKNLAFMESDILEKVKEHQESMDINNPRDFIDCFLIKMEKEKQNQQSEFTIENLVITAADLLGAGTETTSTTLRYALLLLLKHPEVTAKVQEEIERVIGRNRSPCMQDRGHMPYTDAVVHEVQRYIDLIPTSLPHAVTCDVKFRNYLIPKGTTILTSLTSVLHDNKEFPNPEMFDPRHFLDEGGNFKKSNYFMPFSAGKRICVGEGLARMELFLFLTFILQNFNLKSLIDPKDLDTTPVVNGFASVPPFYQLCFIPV
# Protocol: as §1, §2, §3
# [3] = biological target: T3, CYP2C9 (Homo sapiens, UniProt P11712); test: as above; type: in vitro ADME; settings: compound 10 μM; human liver microsomes 0.25 mg/mL; substrate diclofenac; 15 minutes
# T3 construct: human liver microsomes (0.25 mg/mL); from tissue; host or cells: human liver microsomes
# T3 sequence (P11712 whole entry): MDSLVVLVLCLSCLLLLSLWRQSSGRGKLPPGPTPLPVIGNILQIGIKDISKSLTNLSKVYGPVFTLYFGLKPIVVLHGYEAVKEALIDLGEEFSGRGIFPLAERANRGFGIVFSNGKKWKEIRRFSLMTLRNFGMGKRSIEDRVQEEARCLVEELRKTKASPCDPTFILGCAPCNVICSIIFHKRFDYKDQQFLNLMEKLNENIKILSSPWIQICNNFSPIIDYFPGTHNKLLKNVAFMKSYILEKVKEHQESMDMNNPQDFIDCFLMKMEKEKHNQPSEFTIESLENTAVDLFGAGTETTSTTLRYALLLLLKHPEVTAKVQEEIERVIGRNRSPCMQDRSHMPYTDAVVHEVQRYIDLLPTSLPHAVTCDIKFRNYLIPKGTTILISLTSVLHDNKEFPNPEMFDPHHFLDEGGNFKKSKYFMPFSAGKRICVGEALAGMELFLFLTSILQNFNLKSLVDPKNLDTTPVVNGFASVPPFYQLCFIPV
# Protocol: as §1, §2, §3
# [4] = biological target: T4, CYP2D6 (Homo sapiens, UniProt P10635); test: as above; type: in vitro ADME; settings: compound 10 μM; human liver microsomes 0.25 mg/mL; substrate dextromethorphan; 15 minutes
# T4 construct: human liver microsomes (0.25 mg/mL); from tissue; host or cells: human liver microsomes
# T4 sequence (P10635 whole entry): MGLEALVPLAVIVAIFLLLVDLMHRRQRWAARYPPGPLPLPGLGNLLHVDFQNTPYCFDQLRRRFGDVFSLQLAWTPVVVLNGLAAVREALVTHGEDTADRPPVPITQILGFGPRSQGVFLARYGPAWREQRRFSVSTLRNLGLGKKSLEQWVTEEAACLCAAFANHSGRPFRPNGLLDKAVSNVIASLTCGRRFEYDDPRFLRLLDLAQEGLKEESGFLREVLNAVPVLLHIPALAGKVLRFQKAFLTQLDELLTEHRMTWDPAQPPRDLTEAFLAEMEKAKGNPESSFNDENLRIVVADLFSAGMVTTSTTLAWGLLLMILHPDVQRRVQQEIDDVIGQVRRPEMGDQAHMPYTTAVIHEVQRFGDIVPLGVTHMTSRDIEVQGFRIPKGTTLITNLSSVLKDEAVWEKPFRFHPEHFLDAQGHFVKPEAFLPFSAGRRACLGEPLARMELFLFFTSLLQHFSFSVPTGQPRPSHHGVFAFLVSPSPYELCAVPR
# Protocol: as §1, §2, §3
# [5] = biological target: T5, CYP1A2 (Homo sapiens, UniProt P05177); test: as above; type: in vitro ADME; settings: compound 10 μM; human liver microsomes 0.25 mg/mL; substrate phenacetin; 15 minutes
# T5 construct: human liver microsomes (0.25 mg/mL); from tissue; host or cells: human liver microsomes
# T5 sequence (P05177 1-516): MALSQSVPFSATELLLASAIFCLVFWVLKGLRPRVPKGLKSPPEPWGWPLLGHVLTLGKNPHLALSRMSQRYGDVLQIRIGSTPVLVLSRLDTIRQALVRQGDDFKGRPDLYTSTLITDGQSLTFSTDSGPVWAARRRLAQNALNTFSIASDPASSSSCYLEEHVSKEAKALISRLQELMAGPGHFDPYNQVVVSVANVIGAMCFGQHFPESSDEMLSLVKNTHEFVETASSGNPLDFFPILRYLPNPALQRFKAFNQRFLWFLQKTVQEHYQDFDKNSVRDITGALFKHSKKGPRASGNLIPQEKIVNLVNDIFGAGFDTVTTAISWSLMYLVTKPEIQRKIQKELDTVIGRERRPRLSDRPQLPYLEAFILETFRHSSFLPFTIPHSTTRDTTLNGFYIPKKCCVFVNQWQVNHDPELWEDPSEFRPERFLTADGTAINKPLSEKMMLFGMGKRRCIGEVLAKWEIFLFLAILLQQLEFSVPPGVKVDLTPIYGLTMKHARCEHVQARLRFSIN
# Protocol: as §1, §2, §3
# [6] = biological target: T6, tau protein (Homo sapiens, UniProt P10636); test: Tau-BiFC cell model: inhibition of tau protein aggregation; type: cell-based; settings: for remaining activity at 10 µM / remaining activity at 3 µM: 48 h, Forskolin-only group = 100% tau protein-aggregated state; for remaining activity at 10 µM: compound 10 μM, BiFC fluorescence, read-out: Response (% @10 μM); for pIC50: Tau BiFC in cells, with Forskolin 30 μM, 48 hours; for remaining activity at 3 µM: compounds marked *: measured at 3 μM, read-out: Response
# T6 construct: fused on or other part: Split fluorescent-protein halves for BiFC are fused to tau; In the published tau-BiFC line these are Venus VN173 and VC155
# T6 sequence (P10636 2-441 isoform P10636-8 limits assumed): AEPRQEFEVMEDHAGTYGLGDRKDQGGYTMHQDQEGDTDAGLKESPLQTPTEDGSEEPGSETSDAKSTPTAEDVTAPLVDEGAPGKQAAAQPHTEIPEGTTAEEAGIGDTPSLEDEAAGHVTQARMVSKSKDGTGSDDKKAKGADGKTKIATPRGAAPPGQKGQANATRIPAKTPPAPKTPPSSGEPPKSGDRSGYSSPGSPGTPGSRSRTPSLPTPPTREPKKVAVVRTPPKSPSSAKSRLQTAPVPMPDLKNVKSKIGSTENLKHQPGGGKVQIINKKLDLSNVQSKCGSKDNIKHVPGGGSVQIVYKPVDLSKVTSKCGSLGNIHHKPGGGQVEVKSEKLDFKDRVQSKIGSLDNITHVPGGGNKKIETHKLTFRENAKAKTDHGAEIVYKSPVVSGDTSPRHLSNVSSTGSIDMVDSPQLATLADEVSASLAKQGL
# Procedure, shortened: (§4)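 Tau-BiFC cells were exposed for 48 h to compound (1, 3, 10 μM for screening; 0.03–30 μM for dose-response) plus 30 μM Forskolin to induce aggregation. BiFC fluorescence was normalised to Forskolin-only minus untreated controls, with IC50 from nonlinear regression. Viability was Hoechst-stained nuclei counts relative to Forskolin-only wells.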
# [7] = tested on: Tau-BiFC cells; test: Cell viability (cytotoxicity) in tau-BiFC cells, count of stained nuclei; type: cell-based; settings: Forskolin-only group = 100% cell viability; for Cell viability (% @10 μM): compound 10 μM; for Cell viability: compounds marked *: measured at 3 μM
# Procedure, shortened: as §4
# [8] = Liver microsome stability; type: in vitro ADME, mouse; settings: amount of substrate remaining; compound 1 μM, 30 minutes, 37° C., NADPH
# Protocol: (§5) The stability of liver microsomes due to the compounds prepared according to Examples 1 to 175 was confirmed. Specifically, four types of liver microsomes (human, dog, rat, and mouse, each 0.25 mg/mL), a 0.1 M phosphate buffer solution (pH 7.4), and each of the compounds at a concentration of 1 μM were mixed and pre-cultured at 37° C. for 5 minutes and further cultured at 37° C. for 30 minutes together with an NADPH generation system solution added thereto. Thereafter, the reaction was terminated by adding an acetonitrile solution containing an internal standard material (chloropropamide) and centrifuged for 5 minutes (14,000 rpm, 4° C.), and then a supernatant was injected into an LC-MS/MS system for analysis of substrate drugs to thereby evaluate metabolic stability due to 8 types of compounds.
# (§6) The amount of the substrate remaining after the reaction was analyzed using the Shimadzu Nexera XR system and TSQ Vantage (Thermo). In an HPLC column, Kinetex XB-C18 (2.1 mm×100 mm, particle size of 2.6 μm; Phenomenex, USA) was used, and mobile phases were (A) distilled water containing 0.1% formic acid and (B) acetonitrile containing 0.1% formic acid. Analyst software (version 1.6.3) and Xcalibur (version 1.6.1) were used for data analysis.
# [9] = Liver microsome stability; type: in vitro ADME, human; settings: amount of substrate remaining; compound 1 μM, 30 minutes, 37° C., NADPH
# Protocol: as §5, §6
# [10] = Liver microsome stability; type: in vitro ADME, rat; settings: amount of substrate remaining; compound 1 μM, 30 minutes, 37° C., NADPH
# Protocol: as §5, §6
# T1 sequence (P08684 whole entry): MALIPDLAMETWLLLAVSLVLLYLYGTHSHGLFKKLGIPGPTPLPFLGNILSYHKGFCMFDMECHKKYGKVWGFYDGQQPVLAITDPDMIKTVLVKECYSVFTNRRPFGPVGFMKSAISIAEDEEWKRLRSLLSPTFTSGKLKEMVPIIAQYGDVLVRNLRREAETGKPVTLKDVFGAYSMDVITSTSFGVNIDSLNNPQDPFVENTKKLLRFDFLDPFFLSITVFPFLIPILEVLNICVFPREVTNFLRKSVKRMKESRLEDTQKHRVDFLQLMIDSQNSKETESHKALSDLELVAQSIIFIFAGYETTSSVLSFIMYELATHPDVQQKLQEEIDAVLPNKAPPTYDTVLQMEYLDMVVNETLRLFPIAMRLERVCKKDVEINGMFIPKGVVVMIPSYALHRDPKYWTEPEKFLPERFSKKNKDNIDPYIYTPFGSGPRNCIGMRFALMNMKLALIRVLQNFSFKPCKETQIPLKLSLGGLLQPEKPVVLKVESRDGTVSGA
SMILES,CYP3A4 [1],CYP2C19 [2],CYP2C9 [3],CYP2D6 [4],CYP1A2 [5],remaining activity at 10 µM [6] [%],pIC50 [6],Cell viability (% @10 μM) [7] [%],Mouse (%) [8] [%],Human (%) [9] [%],Rat (%) [10] [%],remaining activity at 3 µM [6] [%],Cell viability [7] [%]
"Cc1ccc(C(=O)Nc2ccc(NN=C(C#N)C#N)cn2)cc1 [Compound 23, (6-(4-methylbenzamido)pyridin-3-yl)carbonohydrazonoyl dicyanide]",83.3,82.5,40.6,>100,85,0,6.89,114.2,,,,,
"COc1cc(NN=C(C#N)C#N)ccc1C(=O)Nc1cnc(C)cn1 [Compound 104, (3-methoxy-4-(5-methylpyrazin-2-ylcarbamoyl)phenyl)carbonohydrazonoyl dicyanide]",66.1,82.4,48.6,>100,78.4,0,6.59,142,97.2,84.1,87.5,,
"N#CC(C#N)=NNc1ccc(OCc2cccnc2)cc1 [Compound 124, (4-(pyridin-3-ylmethoxy)phenyl)carbonohydrazonoyl dicyanide]",37.5,69.9,4.4,46.6,23.4,0,6.21,140.9,,,,,
"N#CC(C#N)=NNc1ccc(OCc2ncccn2)cc1 [Compound 136, (4-(pyrimidin-2-ylmethoxy)phenyl)carbonohydrazonoyl dicyanide]",88.9,76.5,70,94.4,80.3,0,5.84,95.7,,,,,
"N#CC(C#N)=NNc1ccc(OCc2cn[nH]c2)cc1 [Compound 137, (4-((1H-pyrazol-4-yl)methoxy)phenyl)carbonohydrazonoyl dicyanide]",84.8,>100,37,>100,>100,,,,,,,31,129
"Cc1cnc(COc2ccc(NN=C(C#N)C#N)cc2)cn1 [Compound 138, (4-((5-methylpyrazin-2-yl)methoxy)phenyl)carbonohydrazonoyl dicyanide]",89.4,>100,92.5,92.7,97.4,,,,,,,15,133
"CC(Oc1ccc(NN=C(C#N)C#N)cc1)c1cccnc1 (centres unmarked) [Compound 140, (4-(1-(pyridin-3-yl)ethoxy)phenyl)carbonohydrazonoyl Dicyanide]",30.8,>100,11.7,69.6,96.7,,,,,,,18,135
"Cc1cc(NN=C(C#N)C#N)ccc1OCc1cc[nH]n1 [Compound 151, (4-((1H-pyrazol-3-yl)methoxy)-3-methylphenyl)carbonohydrazonoyl dicyanide]",88,>100,19.4,94.8,51.8,,7.66,,,,,-32,126
"COc1cc(NN=C(C#N)C#N)ccc1OCc1ccccc1 [Compound 153, (4-(benzyloxy)-3-methoxyphenyl)carbonohydrazonoyl dicyanide]",98.9,100,44.1,90.7,67.9,,7.43,,,,,-43,122
"COc1cc(NN=C(C#N)C#N)ccc1OCc1ccc(C)cc1 [Compound 154, (3-methoxy-4-(4-methylbenzyloxy)phenyl)carbonohydrazonoyl dicyanide]",72.5,76.3,26.6,81.7,79.1,,7.49,,,,,-52,106
"COc1cc(NN=C(C#N)C#N)ccc1OCc1cnccn1 [Compound 159, (3-methoxy-4-(pyrazin-2-ylmethoxy)phenyl)carbonohydrazonoyl dicyanide]",82.1,88,54.7,86.1,42.4,,8.15,,,,,-40,114
"COc1cc(NN=C(C#N)C#N)ccc1OCc1cccnc1 [Compound 160, (3-methoxy-4-(pyridin-3-ylmethoxy)phenyl)carbonohydrazonoyl dicyanide]",17.9,68.5,6.5,59.7,5.8,,8.15,,,,,-33,111
"COc1cc(NN=C(C#N)C#N)ccc1OCc1cnc(C)cn1 [Compound 162, (3-methoxy-4-((5-methylpyrazin-2-yl)methoxy)phenyl)carbonohydrazonoyl dicyanide]",73.3,75.9,73.5,70.3,79.8,,7.31,,,,,-25,115
